{"source": "ChEMBL document CHEMBL1147545", "about": "“Synthesis and monoamine transporter affinity of 3'-analogs of 2-beta-carbomethoxy-3-beta-(4'-iodophenyl)tropane (beta-CIT)” (Bioorg Med Chem Lett, 2004)", "key": {"[1]": {"molecular_target": "Sodium-dependent serotonin transporter (Rattus norvegicus, UniProt P31652)", "sequence (P31652 whole entry)": "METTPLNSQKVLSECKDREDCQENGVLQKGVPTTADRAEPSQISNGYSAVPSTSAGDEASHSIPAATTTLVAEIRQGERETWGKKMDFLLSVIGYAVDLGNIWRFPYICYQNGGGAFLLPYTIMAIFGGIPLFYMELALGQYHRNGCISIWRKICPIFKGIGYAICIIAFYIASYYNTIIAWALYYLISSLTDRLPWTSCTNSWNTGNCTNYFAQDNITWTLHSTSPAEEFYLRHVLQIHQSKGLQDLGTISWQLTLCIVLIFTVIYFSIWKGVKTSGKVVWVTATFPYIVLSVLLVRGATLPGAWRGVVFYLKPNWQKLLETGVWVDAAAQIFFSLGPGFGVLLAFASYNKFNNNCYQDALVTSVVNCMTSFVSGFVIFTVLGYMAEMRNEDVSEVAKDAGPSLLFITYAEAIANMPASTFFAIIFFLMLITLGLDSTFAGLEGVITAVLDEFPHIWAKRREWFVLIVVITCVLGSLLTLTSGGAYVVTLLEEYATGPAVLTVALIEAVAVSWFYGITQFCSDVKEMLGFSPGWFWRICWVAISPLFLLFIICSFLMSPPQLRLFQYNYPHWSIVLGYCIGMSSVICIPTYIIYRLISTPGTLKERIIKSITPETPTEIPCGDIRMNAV", "test": "Binding affinity to serotonin transporter (SERT) in rat forebrain tissue", "assay_type": "tissue-based"}, "[2]": {"molecular_target": "Sodium-dependent noradrenaline transporter (Homo sapiens, UniProt P23975)", "sequence (P23975 whole entry)": "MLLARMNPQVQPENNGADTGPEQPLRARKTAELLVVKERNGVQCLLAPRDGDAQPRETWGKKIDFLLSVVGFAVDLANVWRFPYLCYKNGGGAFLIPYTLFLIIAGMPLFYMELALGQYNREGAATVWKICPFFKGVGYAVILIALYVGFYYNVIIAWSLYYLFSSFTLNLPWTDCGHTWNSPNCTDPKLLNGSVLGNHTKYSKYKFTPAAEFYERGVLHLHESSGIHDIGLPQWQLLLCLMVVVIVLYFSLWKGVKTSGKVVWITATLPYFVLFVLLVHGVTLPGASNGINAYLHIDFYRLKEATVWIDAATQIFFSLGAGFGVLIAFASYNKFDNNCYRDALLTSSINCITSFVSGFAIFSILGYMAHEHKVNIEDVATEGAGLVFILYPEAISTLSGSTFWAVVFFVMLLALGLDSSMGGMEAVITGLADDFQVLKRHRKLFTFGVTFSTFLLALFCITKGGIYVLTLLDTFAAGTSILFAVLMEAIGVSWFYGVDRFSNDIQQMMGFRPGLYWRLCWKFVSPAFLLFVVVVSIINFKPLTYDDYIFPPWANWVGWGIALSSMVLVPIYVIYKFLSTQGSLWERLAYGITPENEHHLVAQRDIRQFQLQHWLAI", "test": "Binding affinity to norepinephrine (NE) transporter in membranes of cells selectively expressing the human genes for NET", "assay_type": "cell membranes"}, "[3]": {"molecular_target": "Sodium-dependent serotonin transporter (Homo sapiens, UniProt P31645)", "sequence (P31645 whole entry)": "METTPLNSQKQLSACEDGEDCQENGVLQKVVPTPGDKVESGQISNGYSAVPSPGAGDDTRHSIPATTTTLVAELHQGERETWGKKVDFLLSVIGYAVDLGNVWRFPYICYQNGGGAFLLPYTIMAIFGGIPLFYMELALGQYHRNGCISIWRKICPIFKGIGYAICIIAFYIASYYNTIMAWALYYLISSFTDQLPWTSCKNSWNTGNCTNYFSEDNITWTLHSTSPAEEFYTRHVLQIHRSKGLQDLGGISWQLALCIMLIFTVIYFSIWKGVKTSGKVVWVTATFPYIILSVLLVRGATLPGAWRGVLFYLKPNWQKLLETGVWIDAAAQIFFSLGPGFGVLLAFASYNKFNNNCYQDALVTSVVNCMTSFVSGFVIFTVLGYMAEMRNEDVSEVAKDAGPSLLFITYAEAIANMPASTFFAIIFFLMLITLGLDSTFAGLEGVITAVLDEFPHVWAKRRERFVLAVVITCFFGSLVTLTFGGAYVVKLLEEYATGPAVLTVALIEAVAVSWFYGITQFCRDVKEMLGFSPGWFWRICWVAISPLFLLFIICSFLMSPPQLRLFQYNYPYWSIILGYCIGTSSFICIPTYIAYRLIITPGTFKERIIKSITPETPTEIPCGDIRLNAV", "test": "Binding affinity to serotonin transporter (SERT) in membranes of cells selectively expressing the human genes for SERT", "assay_type": "cell membranes"}, "[4]": {"molecular_target": "Monoamine transporters; serotonin & dopamine (Homo sapiens) (UniProt P31645+Q01959)", "sequence (P31645 whole entry, looked up)": "as the sequence (P31645 whole entry) above", "sequence (Q01959 whole entry, looked up)": "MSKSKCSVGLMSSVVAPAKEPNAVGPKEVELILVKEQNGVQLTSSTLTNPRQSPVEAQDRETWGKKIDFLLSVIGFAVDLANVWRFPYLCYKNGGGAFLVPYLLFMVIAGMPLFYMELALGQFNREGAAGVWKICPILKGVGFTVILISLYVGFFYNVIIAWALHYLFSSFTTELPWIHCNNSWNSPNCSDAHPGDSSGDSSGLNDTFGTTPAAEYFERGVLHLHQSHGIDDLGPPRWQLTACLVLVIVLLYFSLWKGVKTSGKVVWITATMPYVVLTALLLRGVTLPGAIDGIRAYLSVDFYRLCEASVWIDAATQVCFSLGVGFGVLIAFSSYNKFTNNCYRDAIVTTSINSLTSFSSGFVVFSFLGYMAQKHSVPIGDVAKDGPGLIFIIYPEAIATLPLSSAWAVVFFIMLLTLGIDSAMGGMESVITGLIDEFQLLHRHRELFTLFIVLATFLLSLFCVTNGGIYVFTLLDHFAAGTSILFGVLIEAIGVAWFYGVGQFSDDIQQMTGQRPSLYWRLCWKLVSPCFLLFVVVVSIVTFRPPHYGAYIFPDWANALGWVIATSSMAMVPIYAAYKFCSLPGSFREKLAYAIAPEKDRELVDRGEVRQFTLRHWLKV", "test": "Binding selectivity ratio at human serotonin transporter versus dopamine transporter (hSERT/hDAT)", "assay_type": "protein assay"}, "[5]": {"molecular_target": "Norepinephrine transporter (Rattus norvegicus, UniProt Q9WTR4)", "sequence (Q9WTR4 whole entry)": "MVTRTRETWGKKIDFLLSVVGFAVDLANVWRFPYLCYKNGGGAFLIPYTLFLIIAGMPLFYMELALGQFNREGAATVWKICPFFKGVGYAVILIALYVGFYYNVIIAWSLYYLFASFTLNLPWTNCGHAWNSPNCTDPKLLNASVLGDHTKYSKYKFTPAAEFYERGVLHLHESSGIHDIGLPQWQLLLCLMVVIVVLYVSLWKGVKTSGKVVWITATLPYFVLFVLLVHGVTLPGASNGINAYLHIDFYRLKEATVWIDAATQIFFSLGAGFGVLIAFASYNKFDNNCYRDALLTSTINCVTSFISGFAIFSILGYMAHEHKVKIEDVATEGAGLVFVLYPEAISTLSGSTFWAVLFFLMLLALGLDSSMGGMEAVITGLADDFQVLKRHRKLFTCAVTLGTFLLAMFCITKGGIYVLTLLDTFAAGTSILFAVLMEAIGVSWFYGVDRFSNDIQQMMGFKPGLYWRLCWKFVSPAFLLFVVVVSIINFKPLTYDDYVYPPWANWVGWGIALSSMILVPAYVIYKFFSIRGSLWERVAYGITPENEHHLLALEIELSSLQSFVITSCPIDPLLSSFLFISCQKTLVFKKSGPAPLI", "test": "Binding affinity to norepinephrine (NE) transporter in rat forebrain tissue", "assay_type": "tissue-based"}, "[6]": {"molecular_target": "Sodium-dependent dopamine transporter (Homo sapiens, UniProt Q01959)", "sequence (Q01959 whole entry)": "as the sequence (Q01959 whole entry, looked up) above", "test": "Binding affinity to dopamine transporter in membranes of cells selectively expressing the human genes for DAT", "assay_type": "cell membranes"}, "[7]": {"molecular_target": "Sodium-dependent dopamine transporter (Rattus norvegicus, UniProt P23977)", "sequence (P23977 whole entry)": "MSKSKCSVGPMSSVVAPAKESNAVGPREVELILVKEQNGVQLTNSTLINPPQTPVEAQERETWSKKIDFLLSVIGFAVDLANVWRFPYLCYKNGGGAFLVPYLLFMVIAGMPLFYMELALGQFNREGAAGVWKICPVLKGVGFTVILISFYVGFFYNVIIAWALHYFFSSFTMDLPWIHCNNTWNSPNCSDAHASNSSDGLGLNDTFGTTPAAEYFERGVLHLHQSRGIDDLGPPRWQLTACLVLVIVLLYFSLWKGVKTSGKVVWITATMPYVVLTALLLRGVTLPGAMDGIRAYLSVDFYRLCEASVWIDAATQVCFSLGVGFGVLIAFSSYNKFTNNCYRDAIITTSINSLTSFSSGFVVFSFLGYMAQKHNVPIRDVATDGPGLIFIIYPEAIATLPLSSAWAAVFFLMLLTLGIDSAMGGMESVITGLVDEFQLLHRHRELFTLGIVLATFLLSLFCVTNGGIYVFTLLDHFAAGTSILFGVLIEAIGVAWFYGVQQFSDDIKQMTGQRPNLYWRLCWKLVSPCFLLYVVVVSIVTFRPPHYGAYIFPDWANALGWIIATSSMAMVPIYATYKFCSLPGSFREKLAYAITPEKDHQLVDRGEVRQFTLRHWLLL", "test": "Binding affinity to dopamine transporter (DAT) in rat forebrain tissue", "assay_type": "tissue-based"}}, "data": [{"compound": "COC(=O)C1C(c2cccc(I)c2)CC2CCC1N2C", "note": "(stereo not drawn)", "values": [{"measurement": "Ki", "setting": "[1]", "value": 9.82, "unit": "nM"}, {"measurement": "Ki", "setting": "[2]", "value": 1040, "unit": "nM"}, {"measurement": "Ki", "setting": "[3]", "value": 9.63, "unit": "nM"}, {"measurement": "Selectivity ratio", "setting": "[4]", "value": 18.9}, {"measurement": "Ki", "setting": "[5]", "value": "> 10000", "unit": "nM"}, {"measurement": "Ki", "setting": "[6]", "value": 182, "unit": "nM"}, {"measurement": "Ki", "setting": "[7]", "value": 100, "unit": "nM"}]}, {"compound": "COC(=O)C1C(c2cccc(-c3ccco3)c2)CC2CCC1N2C", "note": "(stereo not drawn)", "values": [{"measurement": "Ki", "setting": "[1]", "value": 41.7, "unit": "nM"}, {"measurement": "Ki", "setting": "[2]", "value": 3020, "unit": "nM"}, {"measurement": "Ki", "setting": "[3]", "value": 55.1, "unit": "nM"}, {"measurement": "Selectivity ratio", "setting": "[4]", "value": 0.98}, {"measurement": "Ki", "setting": "[5]", "value": 10000, "unit": "nM"}, {"measurement": "Ki", "setting": "[6]", "value": 54, "unit": "nM"}, {"measurement": "Ki", "setting": "[7]", "value": 30.8, "unit": "nM"}]}, {"compound": "COC(=O)[C@@H]1C2CC[C@H](C[C@@H]1c1ccc(I)cc1)N2C", "values": [{"measurement": "Ki", "setting": "[1]", "value": 0.41, "unit": "nM"}, {"measurement": "Ki", "setting": "[2]", "value": 11.2, "unit": "nM"}]}, {"compound": "COC(=O)C1C(c2cccc(-c3ccccc3)c2)CC2CCC1N2C", "note": "(stereo not drawn)", "values": [{"measurement": "Ki", "setting": "[1]", "value": 35.2, "unit": "nM"}, {"measurement": "Ki", "setting": "[2]", "value": 1360, "unit": "nM"}, {"measurement": "Ki", "setting": "[3]", "value": 38.6, "unit": "nM"}, {"measurement": "Selectivity ratio", "setting": "[4]", "value": 0.229}, {"measurement": "Ki", "setting": "[5]", "value": "> 10000", "unit": "nM"}, {"measurement": "Ki", "setting": "[6]", "value": 8.83, "unit": "nM"}, {"measurement": "Ki", "setting": "[7]", "value": 9.59, "unit": "nM"}]}, {"compound": "COC(=O)C1C2CCC(CC1c1ccc(I)cc1)N2", "note": "(stereo not drawn)", "values": [{"measurement": "Ki", "setting": "[1]", "value": 0.062, "unit": "nM"}]}, {"compound": "COC(=O)C1C2CCC(CC1c1cccc(I)c1)N2", "note": "(stereo not drawn)", "values": [{"measurement": "Ki", "setting": "[1]", "value": 1.35, "unit": "nM"}, {"measurement": "Ki", "setting": "[2]", "value": 118, "unit": "nM"}, {"measurement": "Ki", "setting": "[3]", "value": 1.23, "unit": "nM"}, {"measurement": "Selectivity ratio", "setting": "[4]", "value": 356}, {"measurement": "Ki", "setting": "[5]", "value": 282, "unit": "nM"}, {"measurement": "Ki", "setting": "[6]", "value": 438, "unit": "nM"}, {"measurement": "Ki", "setting": "[7]", "value": 21.2, "unit": "nM"}]}, {"compound": "COC(=O)C1C(c2cccc(-c3ccsc3)c2)CC2CCC1N2C", "note": "(stereo not drawn)", "values": [{"measurement": "Ki", "setting": "[1]", "value": 82.5, "unit": "nM"}, {"measurement": "Ki", "setting": "[2]", "value": "> 20000", "unit": "nM"}, {"measurement": "Ki", "setting": "[3]", "value": 74.1, "unit": "nM"}, {"measurement": "Selectivity ratio", "setting": "[4]", "value": 0.402}, {"measurement": "Ki", "setting": "[5]", "value": "> 10000", "unit": "nM"}, {"measurement": "Ki", "setting": "[6]", "value": 29.8, "unit": "nM"}, {"measurement": "Ki", "setting": "[7]", "value": 23.7, "unit": "nM"}]}]}
